Test results from patent US5693668A, “Acetylcholinesterase inhibitors” (priority 1989, dated 1997).
Read-outs that look alike come from different tables or passages of the source.

Columns and labels:
[1] = Aqueous solubility of MDL 73,745 in Trycol medium; type: physicochemical; conditions: in presence of Trycol (polyethylene glycol 20 Oleyl ether), 5% in 0.9% sodium chloride
Method: Dermal elution media: A 5% solution of polyethylene glycol 20 Oleyl ether (Trycol®, Emery) in 0.9% sodium chloride was used as the receptor medium for the modified Franz Diffusion Cells. […] Temperature of the dermal elution media was maintained at 37° C. using a thermostated constant temperature circulating water bath.

[2] = In vivo transdermal delivery of MDL 73,745 from prototype patch in Beagle dogs; design: species or system Beagle dog
Method: (§1) Transdermal Bioavailability of MDL 73,745 from a prototype transdermal delivery system in Beagle Dogs
(§2) A `lead` prototype formulation was then evaluted in an in vivo dog model. […] The rate of in vivo transdermal delivery in the dog was calculated to be 7.7 μg/cm^2 /hr.
Three male Beagle dogs were studied. Animals were fasted 12 h before drug administration but had free access to drinking water. The following single doses of [^14 C]-MDL 73,745 were administered: intravenous (iv): 1 and 2 mg/kg; oral (po): 10 mg/kg; subcutaneous (sc): 10 mg/kg. There was a two week wash-out period between each administration. Drug was administered as a suspension in 0.5% methyl cellulose.
From the equation: S.ko=Cl.Css
S=area (cm^2) of the patch
Css =steady-state concentration (ng/ml)
ko-rate of release from the delivery system per unit surface area can be calculated: […]

[3] = Pharmacokinetics and bioavailability of [14C]-MDL 73,745 in Beagle dogs; type: in vivo, Beagle dog; conditions: for half-life / clearance / Vd / Cmax / Tmax / bioavailability: dog, in vivo; for Vd: read-out: aVd; for bioavailability: normalized to 2 mg/kg iv
Method: Three male Beagle dogs were studied. Animals were fasted 12 h before drug administration but had free access to drinking water. The following single doses of [^14 C]-MDL 73,745 were administered: intravenous (iv): 1 and 2 mg/kg; oral (po): 10 mg/kg; subcutaneous (sc): 10 mg/kg. There was a two week wash-out period between each administration. Drug was administered as a suspension in 0.5% methyl cellulose. […]

[4] = test system: plasma cholineesterase; assay: Inhibition of plasma cholinesterase activity during patch application in dogs; type: in vivo, Beagle dog; conditions: `lead` prototype patch, throughout patch application (96 hours)
Method: as §1, §2

[5] = iv, 2 mg/kg, iv 2 mg/kg, dog No. 17
[6] = iv, 2 mg/kg, iv 2 mg/kg, dog No. 18
[7] = iv, 2 mg/kg, iv 2 mg/kg, dog No. 19
[8] = iv, 2 mg/kg, iv 2 mg/kg, mean ± SD of 3 dogs
[9] = po, 10 mg/kg, oral 10 mg/kg, dog No. 17
[10] = po, 10 mg/kg, oral 10 mg/kg, dog No. 18
[11] = po, 10 mg/kg, oral 10 mg/kg, dog No. 19
[12] = po, 10 mg/kg, oral 10 mg/kg, mean ± SD of 3 dogs
[13] = sc, 10 mg/kg, subcutaneous 10 mg/kg, dog No. 17
[14] = sc, 10 mg/kg, subcutaneous 10 mg/kg, dog No. 18
[15] = sc, 10 mg/kg, subcutaneous 10 mg/kg, dog No. 19
[16] = sc, 10 mg/kg, subcutaneous 10 mg/kg, mean ± SD of 3 dogs

C[Si](C)(C)c1cccc(C(=O)C(F)(F)F)c1 [MDL 73,745, 2,2,2-Trifluoro-1-(3-trimethylsilylphenyl) ethanone]
aqueous solubility [1]: increases the aqueous solubility | rate of in vivo transdermal delivery ([2]; `lead` prototype patch, dog, calculated): 7.7 μg/cm^2 /hr | plasma level ([2]; `lead` prototype patch, throughout patch application (96 hours)): constant, steady state plasma level | ko, rate of release from the delivery system per unit surface area ([2]; patch 70% w/w MDL 73,745 in DuroTak 80-1074, 5 mg/cm^2, same for both doses, from S.ko=Cl.Css): 7.7 μg/hr/cm^2 | half-life [3, 5]: 18.6 h | clearance ([3]; iv, 2 mg/kg, iv 2 mg/kg, dog No. 17, read-out: Cltot): 78.3 mL/min/kg | Vd [3, 5]: 125 L/kg | half-life [3, 6]: 28.1 h | clearance ([3]; iv, 2 mg/kg, iv 2 mg/kg, dog No. 18, read-out: Cltot): 63.3 mL/min/kg | Vd [3, 6]: 153 L/kg | half-life [3, 7]: 26.2 h | clearance ([3]; iv, 2 mg/kg, iv 2 mg/kg, dog No. 19, read-out: Cltot): 100 mL/min/kg | Vd [3, 7]: 228 L/kg | half-life [3, 8]: 24.3 ± 5 h | clearance ([3]; iv, 2 mg/kg, iv 2 mg/kg, mean ± SD of 3 dogs, read-out: Cltot): 80.5 ± 18.5 mL/min/kg | Vd [3, 8]: 169 ± 53.3 L/kg | clearance ([3]; iv, iv data, read-out: drug clearance): 960 mL/min | Cmax [3, 9]: 15.8 ng/mL | Tmax [3, 9]: 1 h | half-life [3, 9]: 21.4 h | Cmax [3, 10]: 15.3 ng/mL | Tmax [3, 10]: 0.17 h | half-life [3, 10]: 29.5 h | Cmax [3, 11]: 21.8 ng/mL | Tmax [3, 11]: 1 h | half-life [3, 11]: 17.4 h | Cmax [3, 12]: 17.7 ± 3.58 ng/mL | Tmax [3, 12]: 0.72 ± 0.48 h | half-life [3, 12]: 22.8 ± 6.2 h | bioavailability ([3]; po, 10 mg/kg, oral 10 mg/kg, dog No. 17, read-out: F (AUCpo /AUCiv)): 3.4% | bioavailability ([3]; po, 10 mg/kg, oral 10 mg/kg, dog No. 18, read-out: F (AUCpo /AUCiv)): 2.6% | bioavailability ([3]; po, 10 mg/kg, oral 10 mg/kg, dog No. 19, read-out: F (AUCpo /AUCiv)): 4.5% | bioavailability ([3]; po, 10 mg/kg, oral 10 mg/kg, mean ± SD of 3 dogs, read-out: F (AUCpo /AUCiv)): 3.5 ± 1% | bioavailability ([3]; po, 10 mg/kg, oral, 10 mg/kg, read-out: Mean bioavailability (F)): 4% | Cmax [3, 13]: 68.4 ng/mL | Tmax [3, 13]: 6 h | half-life [3, 13]: 12.8 h | Cmax [3, 14]: 42.9 ng/mL | Tmax [3, 14]: 8 h | half-life [3, 14]: 32.7 h | Cmax [3, 15]: 44.7 ng/mL | Tmax [3, 15]: 4 h | half-life [3, 15]: 24.5 h | Cmax [3, 16]: 52 ± 14.2 ng/mL | Tmax [3, 16]: 6 ± 2 h | half-life [3, 16]: 23.3 ± 10 h | bioavailability ([3]; sc, 10 mg/kg, subcutaneous 10 mg/kg, dog No. 17, read-out: F): 41% | bioavailability ([3]; sc, 10 mg/kg, subcutaneous 10 mg/kg, dog No. 18, read-out: F): 25% | bioavailability ([3]; sc, 10 mg/kg, subcutaneous 10 mg/kg, dog No. 19, read-out: F): 36% | bioavailability ([3]; sc, 10 mg/kg, subcutaneous, 10 mg/kg, read-out: Mean bioavailability (F)): 34% | bioavailability ([3]; topical or ocular, 10 mg/kg, dermal patch, 10 mg/kg, read-out: Mean bioavailability (F)): 16% | bioavailability ([3]; topical or ocular, 10 mg/kg, topical dermal cream, 10 mg/kg, read-out: Mean bioavailability (F)): 7% | bioavailability ([3]; topical or ocular, 50 mg/kg, dermal patch, 50 mg/kg, read-out: Mean bioavailability (F)): 12% | bioavailability ([3]; topical or ocular, 50 mg/kg, topical dermal cream, 50 mg/kg, read-out: Mean bioavailability (F)): 3% | Metabolic Index (AUCun /AUCRAD) ([3]; iv 2 mg/kg, dog No. 17): 0.011 | Metabolic Index (AUCun /AUCRAD) ([3]; iv 2 mg/kg, dog No. 18): 0.015 | Metabolic Index (AUCun /AUCRAD) ([3]; iv 2 mg/kg, dog No. 19): 0.009 | Metabolic Index (AUCun /AUCRAD) ([3]; iv 2 mg/kg, mean ± SD of 3 dogs): 0.012 ± 0.003 | Metabolic Index (AUCun /AUCRAD) ([3]; oral 10 mg/kg, dog No. 17): 0.0006 | Metabolic Index (AUCun /AUCRAD) ([3]; oral 10 mg/kg, dog No. 18): 0.0011 | Metabolic Index (AUCun /AUCRAD) ([3]; oral 10 mg/kg, dog No. 19): 0.0006 | Metabolic Index (AUCun /AUCRAD) ([3]; oral 10 mg/kg, mean ± SD of 3 dogs): 0.0008 ± 0.0003 | Metabolic Index (AUCun /AUCRAD) ([3]; subcutaneous 10 mg/kg, dog No. 17): 0.006 | Metabolic Index (AUCun /AUCRAD) ([3]; subcutaneous 10 mg/kg, dog No. 18): 0.007 | Metabolic Index (AUCun /AUCRAD) ([3]; subcutaneous 10 mg/kg, dog No. 19): 0.004 | Metabolic Index (AUCun /AUCRAD) ([3]; subcutaneous 10 mg/kg, mean ± SD of 3 dogs): 0.006 ± 0.002 | inhibition of plasma cholineesterase activity [4]: inhibition of plasma cholineesterase activity was achieved
